The assay relates to MCF7 cells. Briefly: Cell proliferation assay (ATPlite), MCF-7. Type of assay: cell-based, human. As to conditions: inhibition of cell proliferation, 72 h. How it is done: MCF-7 human breast adenocarcinoma cells and HL-60 acute promyelocytic leukaemia cells were obtained from ATCC (LGC Promochem). HG-1 multiple myeloma cells were obtained from Dr. D. Hose (DKFZ Heidelberg). The CellSensor® HRE-bla HCT116 cell line (colorectal carcinoma) was obtained from Invitrogen.
Cells were grown under humidified 95% air, 5% CO2 at 37° C. in Dulbecco's modified Eagle's medium (DMEM: MCF-7) or RPMI 1640 medium (RPMI: HL-60, HG-1) supplemented with 10% fetal bovine serum (FBS), 100 U/ml penicillin and 100 μg/ml streptomycin, 2 mM L-glutamine, and 2 ng/ml IL-6 (for the HG-1 cell line only). The HCT116 cell line was grown under the same atmospheric conditions in McCoy's 5A medium supplemented with 10% FBS and penicillin/streptomycin as above, in addition to blasticidin as a selection marker at a final concentration of 5 μg/ml.
Cell proliferation experiments were carried out in 96-well tissue culture plates with seeding of 2000 cells/well (MCF-7) or 1000 cells/well (HL-60, HG-1) in 100 μl of the relevant medium. Cells were subsequently incubated under the conditions mentioned for 24 h prior to addition of compounds.
For the determination of compound EC50 values, 10 μl compounds at 11× concentrations in 5.5% DMSO were added to the wells at various concentrations yielding a final constant percentage of 0.5% DMSO at the desired 1× compound concentration. As a positive control, cells were treated with 5.5% DMSO. The cells were then incubated for a further 72 h prior to the measurement.
To determine the degree of inhibition of cell proliferation, cells were treated with ATPlite solution according to the manufacturer's instructions (PerkinElmer, ATPlite 1-step Luminescence ATP Detection Assay System) and luciferase readout measured on an Envision HTS multilabel plate reader (PerkinElmer) in luminescence mode according to established protocols. Raw data were imported into an ActivityBase database (IDBS, ID Business Solutions) and EC50 values calculated using the IDBS program ActivityBase XE. Table 2A and 2B show the IC50 values obtained in the above-outlined cell proliferation assay for exemplary compounds of the invention.

Each structure is given as a SMILES string.

As a reminder, the EC50 is the midpoint of the concentration-response curve.

With `CC(=O)c1cccc(-c2ccc(C)c(NS(=O)(=O)c3ccc(C)cc3)c2)n1` [Example 42, N-[5-(6-Acetyl-pyridin-2-yl)-2-methyl-phenyl]-4-methyl-benzenesulfonamide], the EC50 (Homo sapiens) is 0.5 to 1 µM.

For the setting “Homo sapiens”, `COc1ccc(S(=O)(=O)Nc2cc(-c3ccc(C#N)nc3)ccc2C)cc1` [Example 61, N-[5-(6-Cyano-pyridin-3-yl)-2-methyl-phenyl]-4-methoxy-benzenesulfonamide] registered an EC50 of less than 0.5 µM.

Where the note is “Homo sapiens”, `Cc1ccc(S(=O)(=O)Nc2cc(-c3ccc(N)cn3)ccc2C)cc1` [Example 106, N-(5-(5-aminopyridin-2-yl)-2-methylphenyl)-4-methylbenzenesulfonamide] yielded an EC50 of 1 to 10 µM.

In the case of `Cc1ccc(-c2ccc(C#N)s2)cc1NS(=O)(=O)c1ccc(Cl)cc1` [Example 77, 4-Chloro-N-[5-(5-cyano-thiophen-2-yl)-2-methyl-phenyl]-benzenesulfonamide], the EC50 (Homo sapiens) is less than 0.5 µM.

`Cc1ccc(S(=O)(=O)Nc2cc(-c3cscc3C#N)ccc2C)cc1` [Example 69, N-[5-(4-Cyano-thiophen-3-yl)-2-methyl-phenyl]-4-methyl-benzenesulfonamide] returned an EC50 (Homo sapiens) of less than 0.5 µM.

Under “Homo sapiens”, `COc1cncc(-c2ccc(C)c(NS(=O)(=O)c3ccc(C)cc3)c2)c1` [Example 35, N-[5-(5-Methoxy-pyridin-3-yl)-2-methyl-phenyl]-4-methyl-benzenesulfonamide] registered an EC50 of 1 to 10 µM.

With `Cc1ccc(S(=O)(=O)Nc2cc(-c3ccoc3C)ccc2C)cc1` [Example 25, 4-Methyl-N-[2-methyl-5-(2-methyl-furan-3-yl)-phenyl]-benzenesulfonamide], the EC50 (Homo sapiens) was less than 0.5 µM.

Take `Cc1ccc(-c2ccc(C#N)cc2)cc1NS(=O)(=O)c1ccc([N+](=O)[O-])cc1` [Example 86, N-(4′-Cyano-4-methyl-biphenyl-3-yl)-4-nitro-benzenesulfonamide]: the EC50 (Homo sapiens) lay in the range of 1 to 10 µM.

On to `Cc1ccc(-c2ccc(C#N)cc2)cc1NS(=O)(=O)c1ccc(N)cc1` [Example 87, 4-Amino-N-(4′-cyano-4-methyl-biphenyl-3-yl)-benzenesulfonamide], for which the EC50 (Homo sapiens) was less than 0.5 µM.

Where the note is “Homo sapiens”, `COc1ccc(S(=O)(=O)Nc2cc(-c3cccc(C#N)c3)ccc2C)cc1` [Example 57, N-(3′-Cyano-4-methyl-biphenyl-3-yl)-4-methoxy-benzenesulfonamide] yielded an EC50 of 0.5 to 1 µM.

For `COc1cc(C)c(-c2ccc(C)c(NS(=O)(=O)c3ccc(C)cc3)c2)cn1` [Example 36, N-[5-(6-Methoxy-4-methyl-pyridin-3-yl)-2-methyl-phenyl]-4-methyl-benzenesulfonamide], under “Homo sapiens”, the EC50 lay in the range of 1 to 10 µM.

`Cc1ccc(S(=O)(=O)Nc2cc(-c3ccc(F)cn3)ccc2C)cc1` [Example 53, N-[5-(5-Fluoro-pyridin-2-yl)-2-methyl-phenyl]-4-methyl-benzenesulfonamide] came in with an EC50 (Homo sapiens) of less than 0.5 µM.

`Cc1ccc(S(=O)(=O)Nc2cc(-c3ncc(C#N)cn3)ccc2C)cc1` [Example 64, N-[5-(5-Cyano-pyrimidin-2-yl)-2-methyl-phenyl]-4-methyl-benzenesulfonamide] returned an EC50 (Homo sapiens) of 0.5 to 1 µM.

Consider `COc1cc(-c2ccc(C)c(NS(=O)(=O)c3ccc(C)c(F)c3)c2)ccc1C#N` [Example 99, N-(4′-cyano-3′-methoxy-4-methylbiphenyl-3-yl)-3-fluoro-4-methylbenzenesulfonamide], for which the EC50 (Homo sapiens) is less than 0.5 µM.

`Cc1ccc(S(=O)(=O)Nc2cc(-c3nnn[nH]3)ccc2C)cc1` [Example 1, 4-Methyl-N-[2-methyl-5-(1H-tetrazol-5-yl)-phenyl]-benzenesulfonamide] yielded an EC50 (Homo sapiens) of 1 to 10 µM.

Take `C#Cc1ccc(-c2ccc(C)c(NS(=O)(=O)c3ccc(C)cc3)c2)cc1` [Example 84, N-(4′-Ethynyl-4-methyl-biphenyl-3-yl)-4-methyl-benzenesulfonamide]: the EC50 (Homo sapiens) is 0.5 to 1 µM.

For `Cc1ccc(-c2ccc(C#N)cc2)cc1NS(=O)(=O)c1ccc([N+](=O)[O-])c(F)c1` [Example 105, N-(4′-cyano-4-methylbiphenyl-3-yl)-3-fluoro-4-nitrobenzenesulfonamide], where the note is “Homo sapiens”, the EC50 was 1 to 10 µM.

For the setting “Homo sapiens”, `Cc1ccc(S(=O)(=O)Nc2cc(-c3sc(C)nc3C)ccc2C)cc1` [Example 12, N-[5-(2,4-Dimethyl-thiazol-5-yl)-2-methyl-phenyl]-4-methyl-benzenesulfonamide] came in with an EC50 of less than 0.5 µM.

`Cc1ccc(S(=O)(=O)Nc2cc(-c3ccc(C(F)(F)F)cn3)ccc2C)cc1` [Example 45, 4-Methyl-N-[2-methyl-5-(5-trifluoromethyl-pyridin-2-yl)-phenyl]-benzenesulfonamide] came in with an EC50 (Homo sapiens) of 1 to 10 µM.

Consider `Cc1ccc(-c2ccc(C#N)s2)cc1NS(=O)(=O)c1ccc(F)cc1` [Example 91, N-[5-(5-Cyano-thiophen-2-yl)-2-methyl-phenyl]-4-fluoro-benzenesulfonamide], for which, where the note is “Homo sapiens”, the EC50 was in the range of 0.5 to 1 µM.

For `COc1ccc(S(=O)(=O)Nc2cc(-n3cccc3)ccc2C)cc1` [Example 21, 4-Methoxy-N-(2-methyl-5-pyrrol-1-yl-phenyl)-benzenesulfonamide], the EC50 (Homo sapiens) is less than 0.5 µM.

Turning to `COc1cccnc1-c1ccc(C)c(NS(=O)(=O)c2ccc(C)cc2)c1` [Example 26, N-[5-(3-Methoxy-pyridin-2-yl)-2-methyl-phenyl]-4-methyl-benzenesulfonamide], under “Homo sapiens”, the EC50 lay in the range of 1 to 10 µM.

For `Cc1ccc(S(=O)(=O)Nc2cc(-c3ccc(C#N)cc3)ccc2C)cc1F` [Example 88, N-(4′-Cyano-4-methyl-biphenyl-3-yl)-3-fluoro-4-methyl-benzenesulfonamide], for the setting “Homo sapiens”, the EC50 was less than 0.5 µM.

`Cc1ccc(S(=O)(=O)Nc2cc(-c3cccc(C(F)(F)F)n3)ccc2C)cc1` [Example 39, 4-Methyl-N-[2-methyl-5-(6-trifluoromethyl-pyridin-2-yl)-phenyl]-benzenesulfonamide]: the EC50 (Homo sapiens) was 0.5 to 1 µM.

As to `Cc1ccc(-c2csc(C#N)c2)cc1NS(=O)(=O)c1ccc([N+](=O)[O-])cc1` [Example 96, N-(5-(5-cyanothiophen-3-yl)-2-methylphenyl)-4-nitrobenzenesulfonamide], the EC50 (Homo sapiens) is 1 to 10 µM.

As to `Cc1ccc(S(=O)(=O)Nc2cc(-c3cccc(C)n3)ccc2C)cc1` [Example 33, 4-Methyl-N-[2-methyl-5-(6-methyl-pyridin-2-yl)-phenyl]-benzenesulfonamide], the EC50 (Homo sapiens) was in the range of 0.5 to 1 µM.

As for `COc1ccc(S(=O)(=O)Nc2cc(-c3ccnc(C#N)c3)ccc2C)cc1` [Example 75, N-[5-(2-Cyano-pyridin-4-yl)-2-methyl-phenyl]-4-methoxy-benzenesulfonamide], where the note is “Homo sapiens”, the EC50 was in the range of 0.5 to 1 µM.

In turn, `COc1ccc(S(=O)(=O)Nc2cc(-c3ccsc3C)ccc2C)cc1` [Example 17, 4-Methoxy-N-[2-methyl-5-(2-methyl-thiophen-3-yl)-phenyl]-benzenesulfonamide] came in with an EC50 (Homo sapiens) of less than 0.5 µM.

For the compound `Cc1ccc(S(=O)(=O)Nc2cc(-c3cccc(N(C)C)n3)ccc2C)cc1` [Example 66, N-[5-(6-Dimethylamino-pyridin-2-yl)-2-methyl-phenyl]-4-methyl-benzenesulfonamide], where the note is “Homo sapiens”, the half-maximal effective concentration (EC50) lay in the range of 0.5 to 1 µM.

Compound `COc1ccc(-c2ccc(C)c(NS(=O)(=O)c3ccc(OC)cc3)c2)cc1` [Example 81, 4-Methoxy-N-(4′-methoxy-4-methyl-biphenyl-3-yl)-benzenesulfonamide] gave an EC50 (Homo sapiens) of less than 0.5 µM.

In the case of `COc1ccc(S(=O)(=O)Nc2cc(-c3ccsc3C#N)ccc2C)cc1` [Example 62, N-[5-(2-Cyano-thiophen-3-yl)-2-methyl-phenyl]-4-methoxy-benzenesulfonamide], the EC50 (Homo sapiens) is less than 0.5 µM.

With `Cc1ccc(-c2ccc(C)c(NS(=O)(=O)c3ccc(C)cc3)c2)cc1` [Example 10, N-(4,4′-Dimethyl-biphenyl-3-yl)-4-methyl-benzenesulfonamide], under “Homo sapiens”, the EC50 fell in the range of 1 to 10 µM.

In turn, `Cc1ccc(S(=O)(=O)Nc2cc(-c3nnn(C)n3)ccc2C)cc1` [Example 6, 4-Methyl-N-[2-methyl-5-(2-methyl-2H-tetrazol-5-yl)-phenyl]-benzenesulfonamide] yielded an EC50 (Homo sapiens) of 1 to 10 µM.

Regarding `COc1ccc(S(=O)(=O)Nc2cc(-c3ccc(C#N)s3)ccc2C)cc1OC` [Example 108, N-(5-(5-cyanothiophen-2-yl)-2-methylphenyl)-3.4-dimethoxybenzenesulfonamide], the EC50 was in the range of 0.5 to 1 µM.

`Cc1ccc(-c2ccc(C#N)s2)cc1NS(=O)(=O)c1ccc(N)cc1` [Example 93, 4-Amino-N-[5-(5-cyano-thiophen-2-yl)-2-methyl-phenyl]-benzenesulfonamide] displayed an EC50 (Homo sapiens) of less than 0.5 µM.

Regarding `Cc1ccc(S(=O)(=O)Nc2cc(-c3occc3C#N)ccc2C)cc1` [Example 70, N-[5-(3-Cyo-furan-2-yl)-2-methyl-phenyl]-4-methyl-benzenesulfonamide], the EC50 is less than 0.5 µM.

The compound `COc1ccc(S(=O)(=O)Nc2cc(-c3cnco3)ccc2C)cc1` [Example 20, 4-Methoxy-N-(2-methyl-5-oxazol-5-yl-phenyl)-benzenesulfonamide] yielded an EC50 (Homo sapiens) of less than 0.5 µM.

The record behind these values is patent US20120095024A1, “TOLUIDINE SULFONAMIDES AND THEIR USE” (Elara Pharmaceuticals GmbH, priority 2008, published 2012).
